Tests used:
[1] = system: Hepatocyte; assay: Hepatoprotective activity against D-GaIN/TNFalpha-induced cell death in mouse hepatocyte at 100 uM; format: functional, cell-based
[2] = system: Hepatocyte; assay: Hepatoprotective activity against D-GaIN/TNFalpha-induced cell death in mouse hepatocytes at 50 uM assessed as inhibition of cell death relative to control; format: functional; design: scale not given: the % may be the effect or the level left
[3] = system: Rattus norvegicus; assay: Hepatoprotective activity in GaIN-induced rat model of liver injury assessed as reduction in ALT level at 4 mg/kg relative to control; format: functional; design: scale not given: the % may be the effect or the level left
[4] = system: Huh-7; assay: Hepatoprotective activity against CCL4-induced mouse model in human Huh-7 cells assessed as decrease in ALT level at 100 ug/mL; format: functional; conditions: dose 100 µg/ml
[5] = system: Mus musculus; assay: Hepatoprotective activity against D-GaIN/CCl4 induced liver injury mouse model assessed as reduction in GPT level at 1.0 microg/ml, iv relative to control; format: functional; design: scale not given: the % may be the effect or the level left; conditions: dose 1 µg/ml
[6] = system: L02; assay: Protection against D-GalN-induced cell damage in human L02 cells […] assessed as reduction in cell viability […]; format: functional, cell-based
[7] = Hepatoprotective activity against D-Galactosamine-induced toxicity in rat WB-F344 cells assessed as cell survival rate at 10 uM relative to control; format: functional
[8] = Hepatoprotective activity against D-GaIN - induced toxicity in rat WB-F344 cells assessed as inhibition of cell growth relative to control; format: functional; design: scale not given: the % may be the effect or the level left
[9] = system: Hepatocyte; assay: Hepatoprotective activity against D-GaIN/TNFalpha -induced cell death in mouse hepatocyte assessed as inhibition at 50 uM relative to control; format: functional; design: scale not given: the % may be the effect or the level left
[10] = system: Hepatocyte; assay: Hepatoprotective activity against CCl4/GaIN-induced cytotoxicity in rat hepatocytes assessed as decrease in GPT level at 1.0 ug/mL relative to control; format: functional; design: scale not given: the % may be the effect or the level left; conditions: dose 1 µg/ml
[11] = system: L02; assay: Protection against D-GalN-induced toxicity in L02 cells […] assessed as reduction in cell growth relative to control; format: functional, Homo sapiens; design: scale not given: the % may be the effect or the level left
[12] = system: L02; assay: Protection against D-GalN-induced toxicity in L02 cells […] assessed as reduction in cell growth at 6.25 microg/ml relative to control; format: functional, Homo sapiens; design: scale not given: the % may be the effect or the level left; conditions: dose 6.25 µg/ml

## CC1=C(C)[C@H]2C3=CC[C@@H]4[C@@]5(C)C[C@@H](O)[C@H](O)[C@@](C)(CO)[C@@H]5CC[C@@]4(C)[C@]3(C)CC[C@@]2(C(=O)O[C@@H]2O[C@H](CO)[C@@H](O)[C@H](O)[C@H]2O)CC1
[1]
  IC50: 33.6 µM
[2]
  Activity: 8.3%

## COC(=O)[C@]12CC[C@@H](C)[C@H](C)[C@H]1C1=CC[C@@H]3[C@@]4(C)C[C@@H](OC(C)=O)C(=O)[C@@](C)(C=O)[C@@H]4CC[C@@]3(C)[C@]1(C)CC2
[3]
  Activity: 66.4%

## CC1(C)CC[C@]2(CO)CC[C@]3(C)C(=CC[C@@H]4[C@@]5(C)CC[C@H](O)C(C)(C)[C@@H]5CC[C@]43C)[C@@H]2C1 [ERYTHRODIOL]
[4]
  Activity: 40.2 U/ml

## CO[C@@H]1C=C2[C@@H]3CC(C)(C)C(=O)C[C@]3(C(=O)O)CC[C@@]2(C)[C@]2(C)CCC3C(C)(C)C(=O)CC[C@]3(C)[C@@H]12 (stereo partly drawn)
[5]
  Activity: 48%

## CC(=O)O[C@H]1[C@@H]2O[C@@]3(C(C)(C)O)CC[C@](C)(O3)C2[C@@]2(CO)CC[C@@]34C[C@@]35CC[C@H](O)C(C)(C)C5CC[C@H]4[C@]12C (stereo partly drawn)
[6]
  EC50: 55.9 µM

## CC1(C)CC[C@]2(C(=O)O[C@@H]3O[C@H](CO)[C@@H](O)[C@H](O)[C@H]3O)CC[C@]3(C)C(=CC[C@@H]4[C@@]5(C)C[C@@H](O)[C@@H](O)[C@](C)(CO)[C@@H]5CC[C@]43C)[C@@H]2[C@@H]1O
[7]
  Activity: 61%
[8]
  Activity: 61%

## CC1(C)CC[C@]2(C(=O)O[C@@H]3O[C@H](CO)[C@@H](O)[C@H](O)[C@H]3O[C@@H]3OC[C@@H](O)[C@H](O)[C@H]3O)CC[C@]3(C)C(=CC[C@@H]4[C@@]5(C)C[C@@H](O)[C@@H](O)C(C)(C)[C@@H]5CC[C@]43C)[C@@H]2[C@@H]1O
[7]
  Activity: 68%
[8]
  Activity: 68%

## CC1(C)CC[C@]2(C(=O)O[C@@H]3O[C@H](CO)[C@@H](O)[C@H](O)[C@H]3O[C@@H]3OC[C@@H](O)[C@H](O)[C@H]3O)CC[C@]3(C)C(=CC[C@@H]4[C@@]5(C)C[C@@H](O)[C@@H](O)[C@@](C)(CO)[C@@H]5CC[C@]43C)[C@@H]2[C@@H]1O
[7]
  Activity: 64%
[8]
  Activity: 64%

## CC1(C)C[C@H]2C3=C[C@@H](O)[C@@H]4[C@@]5(C)CCC(=O)C(C)(C)C5CC[C@@]4(C)[C@]3(C)CC[C@@]2(C(=O)O)CC1=O (stereo partly drawn)
[5]
  Activity: 24%

## C=C(C)[C@@H]1CC[C@]2(C(=O)O[C@@H]3O[C@H](CO)[C@@H](O)[C@H](O)[C@H]3O)CC[C@]3(C)[C@H](CC[C@@H]4[C@@]5(C)C[C@@H](O)[C@H](O)C(C)(C)[C@@H]5CC[C@]43C)[C@@H]12
[9]
  Activity: 37.6%

## CC1(C)CC[C@]2(C(=O)O[C@@H]3O[C@H](CO)[C@@H](O)[C@H](O)[C@H]3O)CC[C@]3(C)C(=CC[C@@H]4[C@@]5(C)CC[C@H](O[C@@H]6O[C@H](C(=O)O)[C@@H](O)[C@H](O)[C@H]6O[C@@H]6OC[C@H](O)[C@H](O)[C@H]6O)C(C)(C)[C@@H]5CC[C@]43C)[C@@H]2C1
[10]
  Activity: 28%

## CC1(C)CC[C@]2(C(=O)O[C@@H]3O[C@H](CO)[C@@H](O)[C@H](O)[C@H]3O)CC[C@]3(C)C(=CC[C@@H]4[C@@]5(C)CC[C@H](O[C@@H]6O[C@H](C(=O)O)[C@@H](O)[C@H](O)[C@H]6O[C@@H]6O[C@H](CO)[C@@H](O)[C@H](O)[C@H]6O)C(C)(C)[C@@H]5CC[C@]43C)[C@@H]2C1 [GINSENOSIDE R0]
[10]
  Activity: 42%

## CC(C)[C@]1(CO[C@@H]2O[C@H](CO)[C@@H](O)[C@H](O)[C@H]2O)CC[C@@H]([C@H]2[C@H](O)C[C@]3(C)[C@@H]2CC[C@@H]2[C@@]4(C)CC[C@H](O[C@@H]5O[C@H](CO)[C@@H](O)[C@H](O)[C@H]5O[C@@H]5O[C@H](CO)[C@@H](O)[C@H](O)[C@H]5O)C(C)(C)[C@@H]4CC[C@]23C)O1
[11]
  Activity: 28.2%
[12]
  Activity: 14.7%

Source: ChEMBL document CHEMBL5260832, “Hepatoprotective natural triterpenoids” (Eur J Med Chem, 2018)
